Source: patent US20240335420A1, “N-ACYLHYDRAZONE COMPOUNDS CAPABLE OF INHIBITING NAV 1.7 AND/OR NAV 1.8, PROCESSES FOR THE PREPARATION THEREOF, COMPOSITIONS, USES, METHODS FOR TREATMENT USING SAME AND KITS” (EUROFARMA LABORATÓRIOS S.A., priority 2021, published 2024)

Columns and labels:
Type in all cases: cell-based
[1] = target: T1, human sodium channels Nav 1.7 (Homo sapiens (Human), UniProt Q15858); experiment: Automated whole-cell voltage-clamp (ScreenPatch 384P), Nav 1.7 sodium current, Protocol 2; details: Protocol 2 (holding −100 mV, inactivation step −40 mV 8 s, 0.05 Hz); CHO cells expressing human Nav 1.7; read-out: Nav1.7 IC50
T1 sequence (Q15858 whole entry): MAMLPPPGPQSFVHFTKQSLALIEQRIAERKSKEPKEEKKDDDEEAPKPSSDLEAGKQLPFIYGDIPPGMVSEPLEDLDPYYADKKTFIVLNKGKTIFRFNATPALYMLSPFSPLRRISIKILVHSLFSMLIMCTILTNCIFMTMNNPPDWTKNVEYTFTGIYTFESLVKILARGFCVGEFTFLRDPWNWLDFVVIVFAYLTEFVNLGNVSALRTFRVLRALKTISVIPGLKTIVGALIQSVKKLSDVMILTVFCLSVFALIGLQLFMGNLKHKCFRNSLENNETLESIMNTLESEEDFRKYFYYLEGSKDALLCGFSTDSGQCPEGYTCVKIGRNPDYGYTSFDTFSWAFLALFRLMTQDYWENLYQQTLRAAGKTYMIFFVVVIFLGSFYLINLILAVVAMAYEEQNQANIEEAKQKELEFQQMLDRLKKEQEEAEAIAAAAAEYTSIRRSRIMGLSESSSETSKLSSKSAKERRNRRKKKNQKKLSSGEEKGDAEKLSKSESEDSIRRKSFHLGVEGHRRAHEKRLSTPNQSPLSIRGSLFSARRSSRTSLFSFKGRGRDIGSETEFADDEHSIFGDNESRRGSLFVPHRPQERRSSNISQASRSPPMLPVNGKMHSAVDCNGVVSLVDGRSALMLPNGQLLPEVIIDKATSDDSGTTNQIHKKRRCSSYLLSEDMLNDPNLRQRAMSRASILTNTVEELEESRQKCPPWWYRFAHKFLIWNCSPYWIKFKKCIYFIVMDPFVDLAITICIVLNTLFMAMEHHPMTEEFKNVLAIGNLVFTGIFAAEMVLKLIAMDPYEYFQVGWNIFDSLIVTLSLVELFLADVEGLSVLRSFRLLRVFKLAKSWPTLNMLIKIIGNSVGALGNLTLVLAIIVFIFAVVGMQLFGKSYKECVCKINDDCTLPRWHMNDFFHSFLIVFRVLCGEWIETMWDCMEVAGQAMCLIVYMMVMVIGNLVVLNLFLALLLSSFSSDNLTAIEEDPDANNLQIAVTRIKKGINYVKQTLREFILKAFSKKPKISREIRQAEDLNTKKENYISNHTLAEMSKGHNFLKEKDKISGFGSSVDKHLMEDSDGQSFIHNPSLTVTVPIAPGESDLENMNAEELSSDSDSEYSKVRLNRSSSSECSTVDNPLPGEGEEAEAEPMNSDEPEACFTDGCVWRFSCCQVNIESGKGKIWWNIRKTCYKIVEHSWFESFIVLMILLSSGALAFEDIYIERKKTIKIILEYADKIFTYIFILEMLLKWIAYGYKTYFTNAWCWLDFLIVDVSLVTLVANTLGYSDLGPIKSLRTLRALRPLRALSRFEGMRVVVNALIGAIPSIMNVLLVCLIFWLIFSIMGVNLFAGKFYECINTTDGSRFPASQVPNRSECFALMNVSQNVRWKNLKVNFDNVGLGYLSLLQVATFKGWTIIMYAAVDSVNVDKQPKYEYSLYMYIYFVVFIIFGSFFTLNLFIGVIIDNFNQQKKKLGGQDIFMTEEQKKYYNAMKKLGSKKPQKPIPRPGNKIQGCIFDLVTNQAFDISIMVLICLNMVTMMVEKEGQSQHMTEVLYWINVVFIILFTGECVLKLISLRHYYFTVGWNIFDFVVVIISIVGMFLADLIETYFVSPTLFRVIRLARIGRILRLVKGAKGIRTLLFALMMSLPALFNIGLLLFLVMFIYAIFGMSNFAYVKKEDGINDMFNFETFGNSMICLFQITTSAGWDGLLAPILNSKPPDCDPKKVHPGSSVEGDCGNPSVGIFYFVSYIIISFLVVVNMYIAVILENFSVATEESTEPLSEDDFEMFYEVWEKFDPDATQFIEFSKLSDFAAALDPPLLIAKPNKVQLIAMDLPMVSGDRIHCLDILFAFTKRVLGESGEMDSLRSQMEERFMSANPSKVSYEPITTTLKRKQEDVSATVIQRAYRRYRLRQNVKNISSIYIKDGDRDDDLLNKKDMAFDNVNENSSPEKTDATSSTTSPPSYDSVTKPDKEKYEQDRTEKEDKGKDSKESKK
Protocol: (§1) Biological assays were performed on Chinese hamster ovary (CHO) cells expressing the human sodium channels Nav 1.8 and Nav 1.7 stably.
(§2) The experimental voltage-clamp protocol using the whole cell configuration was established on the automated ScreenPatch® 384P platform (SP384PE, Nanion Technologies, Livingston, NJ) and recording of the results was performed with a Nanion 384-well Patch Clamp chip (NPC) (Nanion Technologies, Livingston, NJ).
(§3) Compounds of Formula (I), were diluted in eight concentrations in the extracellular solution composed of physiological saline, buffered with HEPES (mM): NaCl, 137; KCl, 4; CaCl2, 3.8; MgCl2, 1; HEPES, 10; Glucose, 10; pH 7.4. The […], 50; CsF, 90; MgCl2, 5; EGTA, 5; HEPES, 10; pH 7.2. The duration of exposure of each compound with the cells expressing Nav 1.7 or Nav 1.8 was at least five minutes and the assays were performed at room temperature.
(§4) The measurements of the sodium currents of Nav 1.8 and Nav 1.7 were obtained using the voltage protocols described below: • Protocol 1: A holding voltage of −90 mV was established followed by a voltage phase of 200 ms to −120 mV, followed by a voltage step of 10 mV for 1 second for Nav 1.8 or 0 mV for Nav 1.7, followed by a step of −100 mV for 20 ms, followed by a step of 20 ms for 10 mV for Nav 1.8 or 0 mV for Nav 1.7 (TP1A) before returning to the holding voltage of −90 mV. • Protocol 2: A holding voltage of −100 mV was established followed by an inactivation voltage step at −40 mV for 8 seconds, followed by a −100 mV step for […], followed by a 20 ms step for 10 mV for Nav 1.8 or 0 mV for Nav 1.7 (TP1A) before returning to the holding voltage of −100 mV.
(§5) Protocols were repeated at a frequency of 0.1 Hz (Protocol 1) or 0.05 Hz (Protocol 2) and current amplitude was quantified over the TP1A phase log. The variation in the peak amplitude of the current was evaluated according to the Formula described below, after exposure of the cells expressing the channels, at each concentration of the different compounds:
(§6) [formula] • where |TP1A, basal, and |TP1A, molecule represent the entry peaks of sodium currents into TP1A prior to exposure to the compound and in the presence of the compound, respectively.
(§7) The decrease in peak current amplitude, after exposure of the cells to the compounds, was used to calculate the percent relative blocking of the channels relative to the positive control according to the Formula below:
(§8) [formula] • where % V and % CP represent the averages of the values of current inhibition with a vehicle (DMSO) and positive controls, respectively. The sodium currents of the positive control were considered as 100%.
(§9) [formula] • where [Test] represents the concentration of the evaluated molecule, IC50 is the concentration of the compound that generates half of the maximum inhibition, N is the Hill's coefficient and % Block′ is the percentage of the sodium channel current (Nav 1.8 and Nav 1.7) inhibited at each concentration of the evaluated molecule. Data were obtained by non-linear least squares regression with XLfit for Excel (Microsoft, Redmond, WA).
(§10) Compounds were tested in at least one assay to obtain the IC50 value.

[2] = target: T2, human sodium channels Nav 1.8 (Homo sapiens (Human), UniProt Q9Y5Y9); experiment: Automated whole-cell voltage-clamp (ScreenPatch 384P), Nav 1.8 sodium current, Protocol 2; details: Protocol 2 (holding −100 mV, inactivation step −40 mV 8 s, 0.05 Hz); CHO cells expressing human Nav 1.8; read-out: Nav1.8 IC50
T2 sequence (Q9Y5Y9 whole entry): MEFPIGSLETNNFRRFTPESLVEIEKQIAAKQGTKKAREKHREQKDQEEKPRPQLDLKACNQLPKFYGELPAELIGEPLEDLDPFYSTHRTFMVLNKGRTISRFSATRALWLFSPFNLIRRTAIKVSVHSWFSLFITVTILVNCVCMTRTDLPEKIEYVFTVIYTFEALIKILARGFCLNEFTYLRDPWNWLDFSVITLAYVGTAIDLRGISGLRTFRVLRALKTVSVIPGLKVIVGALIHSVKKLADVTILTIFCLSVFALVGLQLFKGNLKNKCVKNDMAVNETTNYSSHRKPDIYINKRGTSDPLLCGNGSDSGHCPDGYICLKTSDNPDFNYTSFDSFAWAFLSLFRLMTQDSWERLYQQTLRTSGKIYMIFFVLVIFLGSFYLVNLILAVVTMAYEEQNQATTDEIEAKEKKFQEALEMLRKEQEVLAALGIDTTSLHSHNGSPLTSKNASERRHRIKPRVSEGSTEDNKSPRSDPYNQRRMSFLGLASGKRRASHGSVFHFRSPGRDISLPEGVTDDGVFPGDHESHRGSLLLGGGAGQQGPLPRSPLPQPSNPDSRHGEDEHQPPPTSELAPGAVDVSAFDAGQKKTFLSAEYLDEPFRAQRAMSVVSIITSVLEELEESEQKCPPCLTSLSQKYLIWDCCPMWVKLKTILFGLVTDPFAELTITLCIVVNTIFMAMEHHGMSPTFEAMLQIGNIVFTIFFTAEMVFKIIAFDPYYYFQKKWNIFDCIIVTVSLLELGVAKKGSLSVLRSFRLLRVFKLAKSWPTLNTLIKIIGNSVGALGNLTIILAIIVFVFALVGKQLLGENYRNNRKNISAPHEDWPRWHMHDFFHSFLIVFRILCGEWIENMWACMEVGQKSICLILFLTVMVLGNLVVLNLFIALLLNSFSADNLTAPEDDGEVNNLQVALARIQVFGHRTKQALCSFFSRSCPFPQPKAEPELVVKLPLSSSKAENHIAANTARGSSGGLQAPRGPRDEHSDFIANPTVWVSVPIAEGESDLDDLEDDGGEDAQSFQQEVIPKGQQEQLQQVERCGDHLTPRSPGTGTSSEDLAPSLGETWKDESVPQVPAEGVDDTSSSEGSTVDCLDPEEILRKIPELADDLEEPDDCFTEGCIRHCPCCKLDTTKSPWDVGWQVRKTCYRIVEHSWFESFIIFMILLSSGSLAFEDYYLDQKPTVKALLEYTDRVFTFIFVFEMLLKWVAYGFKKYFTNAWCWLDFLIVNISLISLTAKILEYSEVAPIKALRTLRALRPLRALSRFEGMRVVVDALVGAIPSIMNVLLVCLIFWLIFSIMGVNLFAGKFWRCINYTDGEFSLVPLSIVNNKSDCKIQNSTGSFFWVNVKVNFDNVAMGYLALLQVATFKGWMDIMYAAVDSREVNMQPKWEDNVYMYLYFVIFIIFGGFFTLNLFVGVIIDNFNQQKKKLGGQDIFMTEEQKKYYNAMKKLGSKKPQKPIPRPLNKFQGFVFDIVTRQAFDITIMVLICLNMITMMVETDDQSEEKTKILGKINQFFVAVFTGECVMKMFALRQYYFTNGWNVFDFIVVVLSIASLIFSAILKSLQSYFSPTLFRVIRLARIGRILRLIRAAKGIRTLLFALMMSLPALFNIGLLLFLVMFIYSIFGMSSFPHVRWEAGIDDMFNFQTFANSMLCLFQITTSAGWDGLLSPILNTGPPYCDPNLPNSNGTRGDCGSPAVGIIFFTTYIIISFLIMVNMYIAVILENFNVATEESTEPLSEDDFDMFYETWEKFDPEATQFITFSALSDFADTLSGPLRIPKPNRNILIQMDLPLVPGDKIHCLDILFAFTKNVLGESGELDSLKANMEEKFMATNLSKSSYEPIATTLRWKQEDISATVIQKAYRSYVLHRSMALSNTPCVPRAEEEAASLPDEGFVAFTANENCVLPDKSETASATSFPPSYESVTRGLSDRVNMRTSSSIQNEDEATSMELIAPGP
Protocol: as §1, §2, §3, §4, §5, §6, §7, §8, §9, §10

[3] = target: T1, human sodium channels Nav 1.7; experiment: Automated whole-cell voltage-clamp (ScreenPatch 384P), Nav 1.7 sodium current, Protocol 1; details: Protocol 1 (holding −90 mV, 0.1 Hz); CHO cells expressing human Nav 1.7; room temperature; read-out: Nav1.7 IC50
Protocol: as §1, §2, §3, §4, §5, §6, §7, §8, §9, §10

[4] = target: T2, human sodium channels Nav 1.8; experiment: Automated whole-cell voltage-clamp (ScreenPatch 384P), Nav 1.8 sodium current, Protocol 1; details: Protocol 1 (holding −90 mV, 0.1 Hz); CHO cells expressing human Nav 1.8; room temperature; read-out: Nav1.8 IC50
Protocol: as §1, §2, §3, §4, §5, §6, §7, §8, §9, §10

IC50 [1]	IC50 [2]	IC50 [3]	IC50 [4]	Structure (SMILES)
1320 nM	754 nM	–	–	COc1ccc(-c2cccc(C(=O)N/N=C/c3cc(OC)cc(OC)c3)n2)cc1 [Compound 14, (E)-N′-(3,5-dimethoxybenzylidene)-6-(4-methoxyphenyl) picolinohydrazide]
272 nM	297 nM	–	–	CCCOc1ccc(-c2cccc(C(=O)N/N=C/c3cc(OC)cc(OC)c3)n2)cc1 [Compound 15, (E)-N′-(3,5-dimethoxybenzylidene)-6-(4-propoxyphenyl) picolinohydrazide]
444 nM	224 nM	–	–	CCOc1ccc(-c2cccc(C(=O)N/N=C/c3cc(OC)cc(OC)c3)n2)cc1 [Compound 31, (E)-N′-(3,5-dimethoxybenzylidene)-6-(4-ethoxyphenyl) picolinohydrazide]
> 10000 nM	> 1000 nM	–	–	COc1cc(/C=N/NC(=O)c2ccnc(-c3ccc(OC4CCCC4)cc3)c2)cc(OC)c1 [Compound 39, (E)-2-(4-(cyclopentyloxy)phenyl)-N′-(3,5-dimethoxybenzylidene) isonicotinohydrazide]
123 nM	140 nM	–	–	COc1cc(/C=N/NC(=O)c2cccc(-c3ccc(OC(F)(F)F)cc3)n2)cc(OC)c1 [Compound 40, (E)-N′-(3,5-dimethoxybenzylidene)-6-(4-(trifluoromethoxy)phenyl) picolinohydrazide]
137 nM	313 nM	–	–	COc1cc(/C=N/NC(=O)c2ccnc(-c3ccc(OC(C)C)cc3)n2)cc(OC)c1 [Compound 54, (E)-N′-(3,5-dimethoxybenzylidene)-2-(4-isopropoxyphenyl)pyrimidine-4-carbohydrazide]
–	–	> 10000 nM	> 10000 nM	COc1cc(/C=N/NC(=O)c2ccnc(-c3ccc(OC4CCCC4)cc3)n2)cc(OC)c1 [Compound 55, (E)-2-(4-(cyclopentyloxy)phenyl)-N′-(3,5-dimethoxybenzylidene)pyrimidine-4-carbohydrazide]
–	–	> 10000 nM	> 10000 nM	COc1cc(/C=N/NC(=O)c2ccnc(-c3ccc(OC(F)(F)F)cc3)n2)cc(OC)c1 [Compound 56, (E)-N′-(3,5-dimethoxybenzylidene)-2-(4-(trifluoromethoxy)phenyl) pyrimidine-4-carbohydrazide]
–	–	> 10000 nM	> 10000 nM	COc1ccc(-c2nccc(C(=O)N/N=C/c3cc(OC)cc(OC)c3)n2)cc1 [Compound 57, (E)-N′-(3,5-dimethoxybenzylidene)-2-(4-methoxyphenyl)pyrimidine-4-carbohydrazide]
–	–	> 10000 nM	> 10000 nM	CCCOc1ccc(-c2nccc(C(=O)N/N=C/c3cc(OC)cc(OC)c3)n2)cc1 [Compound 58, (E)-N′-(3,5-dimethoxybenzylidene)-2-(4-propoxyphenyl)pyrimidine-4-carbohydrazide]
5150 nM	5040 nM	–	–	COc1cc(/C=N/NC(=O)c2nccc(-c3ccc(Cl)cc3)n2)cc(OC)c1 [Compound 60, (E)-4-(4-chlorophenyl)-N′-(3,5-dimethoxybenzylidene)pyrimidine-2-carbohydrazide]
651 nM	183 nM	–	–	CCOc1ccc(-c2ccnc(C(=O)N/N=C/c3cc(OC)cc(OC)c3)n2)cc1 [Compound 61, (E)-N′-(3,5-dimethoxybenzylidene)-4-(4-ethoxyphenyl)pyrimidine-2-carbohydrazide]
302 nM	462 nM	–	–	COc1cc(/C=N/NC(=O)c2nccc(-c3ccc(OC(C)C)cc3)n2)cc(OC)c1 [Compound 62, (E)-N′-(3,5-dimethoxybenzylidene)-4-(4-isopropoxyphenyl)pyrimidine-2-carbohydrazide]
306 nM	> 1000 nM	–	–	COc1cc(/C=N/NC(=O)c2nccc(-c3ccc(OC4CCCC4)cc3)n2)cc(OC)c1 [Compound 63, (E)-4-(4-(cyclopentyloxy)phenyl)-N′-(3,5-dimethoxybenzylidene)pyrimidine-2-carbohydrazide]
173 nM	384 nM	–	–	COc1cc(/C=N/NC(=O)c2nccc(-c3ccc(OC(F)(F)F)cc3)n2)cc(OC)c1 [Compound 64, (E)-N′-(3,5-dimethoxybenzylidene)-4-(4-(trifluoromethoxy)phenyl) pyrimidine-2-carbohydrazide]
6440 nM	> 1000 nM	–	–	COc1ccc(-c2ccnc(C(=O)N/N=C/c3cc(OC)cc(OC)c3)n2)cc1 [Compound 65, (E)-N′-(3,5-dimethoxybenzylidene)-4-(4-methoxyphenyl)pyrimidine-2-carbohydrazide]
569 nM	> 1000 nM	–	–	CCCOc1ccc(-c2ccnc(C(=O)N/N=C/c3cc(OC)cc(OC)c3)n2)cc1 [Compound 66, (E)-N′-(3,5-dimethoxybenzylidene)-4-(4-propoxyphenyl)pyrimidine-2-carbohydrazide]
> 10000 nM	636 nM	–	–	CCOc1ccc(-c2cc(F)cc(C(=O)N/N=C/c3cc(OC)cc(OC)c3)n2)cc1 [Compound 68, (E)-N′-(3,5-dimethoxybenzylidene)-6-(4-ethoxyphenyl)-4-fluoropicolinohydrazide]
> 10000 nM	> 1000 nM	–	–	CCOc1ccc(-c2cc(C(F)(F)F)cc(C(=O)N/N=C/c3cc(OC)cc(OC)c3)n2)cc1 [Compound 69]
> 10000 nM	> 1000 nM	–	–	COc1ccc(-c2ccc(C(=O)N/N=C/c3cc(OC)cc(OC)c3)o2)cc1 [Compound 71, (E)-N′-(3,5-dimethoxybenzylidene)-5-(4-methoxyphenyl) furan-2-carbohydrazide]
> 10000 nM	> 1000 nM	–	–	COc1ccc(-c2ccc(C(=O)N/N=C/c3cc(OC)cc(OC)c3)s2)cc1 [Compound 72, (E)-N′-(3,5-dimethoxybenzylidene)-5-(4-methoxyphenyl)thiophene-2-carbohydrazide]
–	–	> 30000 nM	> 30000 nM	COc1cc(/C=N/N(C)C(=O)c2ccc(-c3ccc(Cl)cc3)o2)cc(OC)c1 [Compound 78, (E)-5-(4-chlorophenyl)-N′-(3,5-dimethoxybenzylidene)-N′-methylfuran-2-carbohydrazide]
–	–	> 10000 nM	> 10000 nM	CCOc1ccc(-c2cccc(C(=O)N(C)/N=C/c3cc(OC)cc(OC)c3)n2)cc1 [Compound 79, (E)-N′-(3,5-dimethoxybenzylidene)-6-(4-ethoxyphenyl)-N′-methylpicolinohydrazide]

Structure (SMILES)	IC50 [1]	IC50 [2]	IC50 [3]	IC50 [4]
CCCCOc1ccc(-c2cc(C(=O)N/N=C/c3cc(OC)cc(OC)c3)ccn2)cc1 [Compound 38, (E)-2-(4-butoxyphenyl)-N′-(3,5-dimethoxybenzylidene) isonicotinohydrazide]	> 10000 nM	> 1000 nM	–	–
CCCCOc1ccc(-c2cccc(C(=O)N/N=C/c3cc(OC)cc(OC)c3)n2)cc1 [Compound 41, (E)-6-(4-butoxyphenyl)-N′-(3,5-dimethoxybenzylidene) picolinohydrazide]	1200 nM	> 1000 nM	–	–
CCCCOc1ccc(-c2nccc(C(=O)N/N=C/c3cc(OC)cc(OC)c3)n2)cc1 [Compound 59, (E)-2-(4-butoxyphenyl)-N′-(3,5-dimethoxybenzylidene)pyrimidine-4-carbohydrazide]	–	–	> 10000 nM	> 10000 nM
CCCCOc1ccc(-c2ccnc(C(=O)N/N=C/c3cc(OC)cc(OC)c3)n2)cc1 [Compound 67, (E)-4-(4-butoxyphenyl)-N′-(3,5-dimethoxybenzylidene)pyrimidine-2-carbohydrazide]	–	–	> 10000 nM	> 10000 nM
